Molecules are shown by their SMILES.

For assay [1], the target named is T1, Serine/threonine-protein kinase D3 (Homo sapiens) (UniProt O94806).
T1 sequence (whole entry): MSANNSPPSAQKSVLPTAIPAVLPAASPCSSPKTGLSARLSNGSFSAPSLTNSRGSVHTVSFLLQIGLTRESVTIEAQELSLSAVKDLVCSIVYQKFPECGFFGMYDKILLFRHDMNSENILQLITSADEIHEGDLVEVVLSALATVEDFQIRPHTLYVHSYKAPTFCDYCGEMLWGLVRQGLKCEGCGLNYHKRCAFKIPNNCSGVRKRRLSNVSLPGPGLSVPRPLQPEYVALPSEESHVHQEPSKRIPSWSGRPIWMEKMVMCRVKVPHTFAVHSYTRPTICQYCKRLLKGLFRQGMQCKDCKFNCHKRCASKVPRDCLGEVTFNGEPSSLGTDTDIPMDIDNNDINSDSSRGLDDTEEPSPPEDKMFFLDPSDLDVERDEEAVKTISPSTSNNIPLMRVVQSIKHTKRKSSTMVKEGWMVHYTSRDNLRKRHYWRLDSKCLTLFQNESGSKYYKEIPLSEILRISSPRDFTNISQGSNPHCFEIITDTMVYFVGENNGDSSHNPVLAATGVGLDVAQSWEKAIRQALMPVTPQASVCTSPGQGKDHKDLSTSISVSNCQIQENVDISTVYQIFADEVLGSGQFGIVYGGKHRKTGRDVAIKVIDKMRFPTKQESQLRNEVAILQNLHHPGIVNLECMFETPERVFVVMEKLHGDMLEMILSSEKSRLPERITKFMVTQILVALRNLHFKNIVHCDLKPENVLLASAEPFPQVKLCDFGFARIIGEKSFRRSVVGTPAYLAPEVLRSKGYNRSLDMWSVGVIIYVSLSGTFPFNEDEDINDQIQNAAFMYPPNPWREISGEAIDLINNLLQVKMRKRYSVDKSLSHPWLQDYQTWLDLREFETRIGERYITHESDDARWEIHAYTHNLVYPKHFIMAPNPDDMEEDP
The assay can be described thus: Selectivity interaction (Kinase panel (Z-LYTE Assay)) EUB0001632a PRKD3. As to conditions: at 10 µM.

The target of assay [2] is Mitogen-activated protein kinase 7 (Homo sapiens) (UniProt Q13164). The assay can be described thus: Selectivity interaction (KinomeScan (DiscoverX)) EUB0000595a MAPK7. The conditions noted are these: at 10 µM.
The subject of assay [3] is Epidermal growth factor receptor (Homo sapiens), P00533 [L858R,T790M]. The assay can be described thus: (§1) Selectivity interaction (KinomeScan (DiscoverX)) EUB0000666a EGFR. The conditions noted are these: at 10 µM.
Assay [4] has as its system Epidermal growth factor receptor (Homo sapiens), P00533 [UNDEFINED MUTATION]. The description is as §1. The conditions noted are these: at 10 µM.
Assay [5] relates to Epidermal growth factor receptor (Homo sapiens), P00533 [L858R]. The assay is described as §1. The conditions noted are these: at 10 µM.
In assay [6] the test system is Epidermal growth factor receptor (Homo sapiens), P00533 [G719C]. Described as §1. The conditions noted are these: at 10 µM.
Assay [7] has as its system Epidermal growth factor receptor (Homo sapiens), P00533 [G719S]. The description is as §1. The conditions noted are these: at 10 µM.
For assay [8], the system named is Epidermal growth factor receptor (Homo sapiens), P00533 [T790M]. Described as §1. As to conditions: at 10 µM.
Assay [9] deals with Leukocyte tyrosine kinase receptor (Homo sapiens, UniProt P29376). Nature of the assay: Selectivity interaction (SelectScreen profiling (Invitrogen)) EUB0000607a LTK. As to conditions: at 2 µM.
Chain of Leukocyte tyrosine kinase receptor (P29376 whole entry): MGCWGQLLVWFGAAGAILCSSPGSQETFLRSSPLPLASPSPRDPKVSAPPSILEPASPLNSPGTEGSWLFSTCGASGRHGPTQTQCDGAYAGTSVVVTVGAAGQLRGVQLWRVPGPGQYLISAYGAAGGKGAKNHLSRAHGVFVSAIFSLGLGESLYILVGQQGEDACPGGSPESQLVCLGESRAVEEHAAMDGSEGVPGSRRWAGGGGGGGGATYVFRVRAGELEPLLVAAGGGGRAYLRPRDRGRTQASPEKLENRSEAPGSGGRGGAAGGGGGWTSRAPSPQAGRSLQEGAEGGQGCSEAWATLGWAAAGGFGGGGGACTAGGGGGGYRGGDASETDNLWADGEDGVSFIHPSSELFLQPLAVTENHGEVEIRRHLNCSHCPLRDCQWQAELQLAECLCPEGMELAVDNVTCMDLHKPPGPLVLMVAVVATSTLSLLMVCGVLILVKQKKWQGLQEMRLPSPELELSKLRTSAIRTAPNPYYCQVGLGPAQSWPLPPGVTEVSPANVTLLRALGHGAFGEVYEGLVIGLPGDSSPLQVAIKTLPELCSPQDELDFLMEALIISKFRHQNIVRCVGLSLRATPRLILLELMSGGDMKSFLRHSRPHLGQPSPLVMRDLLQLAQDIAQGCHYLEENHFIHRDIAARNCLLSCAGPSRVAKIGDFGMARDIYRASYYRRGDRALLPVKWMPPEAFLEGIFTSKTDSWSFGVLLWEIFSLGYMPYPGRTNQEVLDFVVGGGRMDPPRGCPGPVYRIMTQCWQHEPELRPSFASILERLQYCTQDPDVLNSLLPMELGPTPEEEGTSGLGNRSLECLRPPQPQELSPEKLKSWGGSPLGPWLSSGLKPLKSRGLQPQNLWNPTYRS
The target of assay [10] is Serine/threonine-protein kinase 10 (Homo sapiens) (UniProt O94804). Nature of the assay: Selectivity interaction (ActivX KiNativ screen (kinase selectivity in THP-1 cell lysates)) EUB0000639a STK10. The format is subcellular. As to conditions: lysate, at 5 µM.
The target in assay [11] is Casein kinase II subunit alpha (Homo sapiens, UniProt P68400). Nature of the assay: Selectivity interaction (Kinase panel (Enzyme activity assay)) EUB0000612a CSNK2A1.
Chain of Casein kinase II subunit alpha (P68400 whole entry): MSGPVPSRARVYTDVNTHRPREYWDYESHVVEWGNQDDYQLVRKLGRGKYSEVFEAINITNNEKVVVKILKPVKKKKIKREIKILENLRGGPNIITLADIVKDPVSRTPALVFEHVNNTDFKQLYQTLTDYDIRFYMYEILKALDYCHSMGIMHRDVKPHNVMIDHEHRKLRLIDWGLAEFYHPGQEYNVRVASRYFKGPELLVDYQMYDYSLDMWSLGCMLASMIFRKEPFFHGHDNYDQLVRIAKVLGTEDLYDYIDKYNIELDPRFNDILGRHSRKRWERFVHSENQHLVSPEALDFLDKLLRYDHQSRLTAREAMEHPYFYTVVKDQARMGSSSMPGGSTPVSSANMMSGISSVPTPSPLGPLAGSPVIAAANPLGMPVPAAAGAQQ
Assay [12] deals with Ribosomal protein S6 kinase alpha-6 (Homo sapiens, UniProt Q9UK32). Nature of the assay: Selectivity interaction (KinomeScan (DiscoverX)) EUB0001049a RPS6KA6. As to conditions: at 1 µM.
Chain of Ribosomal protein S6 kinase alpha-6 (Q9UK32 whole entry): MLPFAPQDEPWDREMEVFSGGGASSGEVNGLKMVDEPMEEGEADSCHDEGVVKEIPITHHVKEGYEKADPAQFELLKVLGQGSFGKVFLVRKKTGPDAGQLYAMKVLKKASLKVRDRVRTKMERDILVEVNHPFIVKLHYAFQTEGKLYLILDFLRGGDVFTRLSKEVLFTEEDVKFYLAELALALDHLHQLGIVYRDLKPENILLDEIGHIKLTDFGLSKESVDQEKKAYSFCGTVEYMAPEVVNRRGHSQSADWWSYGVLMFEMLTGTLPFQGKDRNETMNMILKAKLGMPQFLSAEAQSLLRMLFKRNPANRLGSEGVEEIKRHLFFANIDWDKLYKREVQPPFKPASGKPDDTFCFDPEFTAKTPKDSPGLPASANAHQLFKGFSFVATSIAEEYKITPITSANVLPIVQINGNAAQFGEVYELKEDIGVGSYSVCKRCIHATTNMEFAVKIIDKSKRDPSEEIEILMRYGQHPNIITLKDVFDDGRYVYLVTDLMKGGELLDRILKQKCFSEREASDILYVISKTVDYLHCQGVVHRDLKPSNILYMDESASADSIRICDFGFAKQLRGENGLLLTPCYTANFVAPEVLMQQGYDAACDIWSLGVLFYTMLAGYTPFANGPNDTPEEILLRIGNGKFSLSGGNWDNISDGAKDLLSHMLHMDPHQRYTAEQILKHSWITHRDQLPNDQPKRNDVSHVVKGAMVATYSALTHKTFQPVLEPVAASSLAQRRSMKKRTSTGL
The target of assay [13] is Calcium/calmodulin-dependent protein kinase type II subunit alpha (Homo sapiens, UniProt Q9UQM7). The assay can be described thus: Selectivity interaction (KinomeScan (DiscoverX)) EUB0001049a CAMK2A. The conditions noted are these: at 1 µM.
Chain of Calcium/calmodulin-dependent protein kinase type II subunit alpha (Q9UQM7 whole entry): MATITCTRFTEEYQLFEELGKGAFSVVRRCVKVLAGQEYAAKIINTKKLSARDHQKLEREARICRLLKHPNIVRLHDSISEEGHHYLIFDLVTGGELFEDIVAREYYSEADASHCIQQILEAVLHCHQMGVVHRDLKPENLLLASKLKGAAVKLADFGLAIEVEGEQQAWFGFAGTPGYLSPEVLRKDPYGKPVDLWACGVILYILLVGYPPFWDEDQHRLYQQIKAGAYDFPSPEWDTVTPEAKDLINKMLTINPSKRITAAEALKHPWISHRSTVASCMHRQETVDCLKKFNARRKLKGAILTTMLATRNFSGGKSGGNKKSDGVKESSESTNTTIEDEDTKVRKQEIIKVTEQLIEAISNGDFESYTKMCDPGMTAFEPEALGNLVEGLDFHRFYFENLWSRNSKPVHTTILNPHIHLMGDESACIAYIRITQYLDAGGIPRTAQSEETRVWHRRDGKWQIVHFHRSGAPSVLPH
Assay [14] addresses T2, Mitogen-activated protein kinase kinase kinase 19 (Homo sapiens) (UniProt Q56UN5).
T2 sequence (whole entry): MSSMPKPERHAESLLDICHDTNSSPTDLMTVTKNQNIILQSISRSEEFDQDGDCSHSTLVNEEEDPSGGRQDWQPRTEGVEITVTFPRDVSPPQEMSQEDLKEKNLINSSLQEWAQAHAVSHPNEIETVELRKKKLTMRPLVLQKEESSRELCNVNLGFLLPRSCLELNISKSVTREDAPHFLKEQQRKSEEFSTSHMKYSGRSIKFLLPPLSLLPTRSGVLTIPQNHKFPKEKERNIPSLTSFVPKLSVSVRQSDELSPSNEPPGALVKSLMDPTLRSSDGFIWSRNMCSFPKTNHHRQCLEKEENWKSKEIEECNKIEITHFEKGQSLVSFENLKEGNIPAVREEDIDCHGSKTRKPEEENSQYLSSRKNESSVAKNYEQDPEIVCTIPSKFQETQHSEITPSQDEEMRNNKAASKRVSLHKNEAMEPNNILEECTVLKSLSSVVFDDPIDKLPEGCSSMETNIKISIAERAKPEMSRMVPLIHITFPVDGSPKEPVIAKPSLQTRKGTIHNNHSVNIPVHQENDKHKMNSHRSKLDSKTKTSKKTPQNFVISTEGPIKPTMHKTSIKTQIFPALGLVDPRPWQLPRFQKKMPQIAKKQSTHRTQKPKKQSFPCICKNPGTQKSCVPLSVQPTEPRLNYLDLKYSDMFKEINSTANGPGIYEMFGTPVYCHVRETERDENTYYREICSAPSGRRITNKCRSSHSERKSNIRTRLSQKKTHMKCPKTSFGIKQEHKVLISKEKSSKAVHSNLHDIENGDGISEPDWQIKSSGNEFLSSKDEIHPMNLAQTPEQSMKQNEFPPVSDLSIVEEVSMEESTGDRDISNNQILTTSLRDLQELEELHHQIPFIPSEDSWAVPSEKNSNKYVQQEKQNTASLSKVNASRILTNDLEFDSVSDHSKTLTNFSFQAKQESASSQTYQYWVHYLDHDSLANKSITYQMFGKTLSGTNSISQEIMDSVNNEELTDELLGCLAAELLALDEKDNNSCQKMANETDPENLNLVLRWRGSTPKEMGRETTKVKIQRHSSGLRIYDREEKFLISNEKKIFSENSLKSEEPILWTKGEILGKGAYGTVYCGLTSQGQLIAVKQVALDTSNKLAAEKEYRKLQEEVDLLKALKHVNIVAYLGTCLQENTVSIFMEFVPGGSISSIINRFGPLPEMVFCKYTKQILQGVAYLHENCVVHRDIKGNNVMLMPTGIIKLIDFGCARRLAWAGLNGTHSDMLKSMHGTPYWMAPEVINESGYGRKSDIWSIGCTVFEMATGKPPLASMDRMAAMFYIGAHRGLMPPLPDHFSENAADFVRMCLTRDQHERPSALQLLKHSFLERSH
Nature of the assay: Selectivity interaction (KinomeScan (DiscoverX)) EUB0001868a MAP3K19. The conditions noted are these: at 1 µM.

A short description of assay [15]: Selectivity interaction (Rat whole blood B cell activation assay) EUB0000877a PIK3CD. The format is tissue-based.

Chain of Epidermal growth factor receptor (Homo sapiens), P00533 [L858R,T790M] (P00533 whole entry T790M/L858R, looked up): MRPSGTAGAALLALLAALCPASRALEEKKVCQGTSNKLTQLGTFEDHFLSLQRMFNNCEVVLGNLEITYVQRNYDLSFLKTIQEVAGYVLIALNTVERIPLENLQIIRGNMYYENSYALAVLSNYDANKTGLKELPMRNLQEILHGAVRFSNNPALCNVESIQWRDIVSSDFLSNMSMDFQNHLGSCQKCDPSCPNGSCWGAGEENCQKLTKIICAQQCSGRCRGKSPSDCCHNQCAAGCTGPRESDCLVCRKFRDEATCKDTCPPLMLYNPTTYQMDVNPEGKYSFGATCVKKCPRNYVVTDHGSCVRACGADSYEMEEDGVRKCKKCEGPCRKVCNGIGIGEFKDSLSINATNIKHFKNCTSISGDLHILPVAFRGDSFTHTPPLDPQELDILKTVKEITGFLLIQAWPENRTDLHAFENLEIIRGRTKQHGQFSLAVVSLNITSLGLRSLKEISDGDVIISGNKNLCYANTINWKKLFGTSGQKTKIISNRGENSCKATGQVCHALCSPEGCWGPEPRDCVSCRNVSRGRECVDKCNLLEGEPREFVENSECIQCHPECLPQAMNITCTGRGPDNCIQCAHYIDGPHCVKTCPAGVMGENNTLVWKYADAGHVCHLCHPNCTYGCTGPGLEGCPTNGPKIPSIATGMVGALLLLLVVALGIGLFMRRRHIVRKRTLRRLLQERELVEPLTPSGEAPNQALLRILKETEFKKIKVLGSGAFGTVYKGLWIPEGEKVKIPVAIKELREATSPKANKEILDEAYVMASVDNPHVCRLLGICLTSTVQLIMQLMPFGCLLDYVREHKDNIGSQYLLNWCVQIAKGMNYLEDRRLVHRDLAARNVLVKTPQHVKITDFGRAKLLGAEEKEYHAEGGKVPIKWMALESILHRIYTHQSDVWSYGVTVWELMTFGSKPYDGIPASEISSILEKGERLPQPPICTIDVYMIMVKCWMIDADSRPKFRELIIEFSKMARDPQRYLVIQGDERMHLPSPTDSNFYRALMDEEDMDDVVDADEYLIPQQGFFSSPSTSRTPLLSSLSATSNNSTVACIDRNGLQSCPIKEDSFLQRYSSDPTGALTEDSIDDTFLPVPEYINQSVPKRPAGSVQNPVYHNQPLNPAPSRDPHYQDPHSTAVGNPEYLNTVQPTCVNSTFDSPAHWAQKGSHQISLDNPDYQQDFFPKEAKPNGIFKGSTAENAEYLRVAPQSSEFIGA
Chain of Epidermal growth factor receptor (Homo sapiens), P00533 [G719S] (P00533 whole entry G719S): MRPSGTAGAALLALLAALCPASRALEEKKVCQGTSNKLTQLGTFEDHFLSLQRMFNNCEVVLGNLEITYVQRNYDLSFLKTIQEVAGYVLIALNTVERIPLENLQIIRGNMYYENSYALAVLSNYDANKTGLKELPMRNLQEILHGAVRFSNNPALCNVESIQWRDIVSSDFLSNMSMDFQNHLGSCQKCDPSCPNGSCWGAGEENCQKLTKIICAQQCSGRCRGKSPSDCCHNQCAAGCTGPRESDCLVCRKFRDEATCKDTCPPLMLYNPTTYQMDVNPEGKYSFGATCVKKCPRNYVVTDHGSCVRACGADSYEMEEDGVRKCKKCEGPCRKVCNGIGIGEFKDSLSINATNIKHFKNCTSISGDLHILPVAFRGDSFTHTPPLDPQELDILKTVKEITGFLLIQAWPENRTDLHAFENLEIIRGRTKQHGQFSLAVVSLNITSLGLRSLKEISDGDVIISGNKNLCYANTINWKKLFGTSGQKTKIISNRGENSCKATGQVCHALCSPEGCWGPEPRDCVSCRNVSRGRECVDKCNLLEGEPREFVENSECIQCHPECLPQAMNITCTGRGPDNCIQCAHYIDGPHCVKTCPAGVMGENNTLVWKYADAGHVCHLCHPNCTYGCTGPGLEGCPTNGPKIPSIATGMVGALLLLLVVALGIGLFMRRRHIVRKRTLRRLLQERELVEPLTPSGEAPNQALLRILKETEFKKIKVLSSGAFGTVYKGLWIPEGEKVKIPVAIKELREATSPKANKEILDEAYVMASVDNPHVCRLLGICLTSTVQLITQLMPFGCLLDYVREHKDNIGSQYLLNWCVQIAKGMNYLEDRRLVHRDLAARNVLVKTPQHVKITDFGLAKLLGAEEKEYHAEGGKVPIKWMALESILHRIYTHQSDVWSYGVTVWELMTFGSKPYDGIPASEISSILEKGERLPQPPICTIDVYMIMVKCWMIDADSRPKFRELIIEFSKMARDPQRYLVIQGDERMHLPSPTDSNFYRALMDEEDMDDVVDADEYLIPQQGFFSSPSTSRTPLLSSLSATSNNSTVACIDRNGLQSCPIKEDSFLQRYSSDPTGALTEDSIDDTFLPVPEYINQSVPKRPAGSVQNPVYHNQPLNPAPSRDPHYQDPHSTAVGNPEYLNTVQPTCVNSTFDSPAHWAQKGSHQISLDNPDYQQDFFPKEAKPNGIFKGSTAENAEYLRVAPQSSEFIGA

For the compound `Cn1cc(-n2cnc3c(NCc4nc5cc(Cl)c(Cl)cc5[nH]4)nc(N4CCOCC4)nc32)cn1`, the % of control in assay [1] was 1.79%. In [2], `COCC(=O)NC/C=C/c1ccc2ncnc(Nc3ccc(Oc4ccc(C)nc4)c(C)c3)c2c1` [CP-724714] yielded a % of control of 100%.

Consider `O=C(NOC[C@H](O)CO)c1ccc(F)c(F)c1Nc1ccc(I)cc1F`, for which the % of control in assay [3] worked out at 100%; in [4], 84%; in [5] it was 79%; in assay [6], 86%; in assay [7] it was 66%; in [8], 77%.

With `CNC(=O)Nc1ccc(-c2nc(N3CC4CCC(C3)O4)c3cnn(C4CCC5(CC4)OCCO5)c3n2)cc1`, the % of inhibition in [9] is 8%. `CC[C@@H]1[C@H](F)C(=O)N[C@@H]1COc1nccc2cc(C(N)=O)c(OC)cc12` [ZIMLOVISERTIB]: the % of inhibition in [10] was -21.8%. With `CCc1cccc(CC)c1NC(=O)c1nn(C)c2c1CCc1cnc(Nc3ccc(C(=O)NC4CCN(C)CC4)cc3OC(F)(F)F)nc1-2`, the IC50 (as a rule, the concentration needed to halve the response being measured) in assay [11] is 5700 nM. Regarding `COc1cc(Nc2nc(C)cc(-c3cnn4nc(OC)ccc34)n2)cc(C(F)(F)F)c1`, the % of control in [12] came to 82%; in [13] it was 85%. Regarding `Cc1cc(-c2ccnc(Nc3cnn(C)c3)n2)ccc1CNC(=O)N1CC(OC(C)C)C1`, the % of control in assay [14] was 9%. Regarding `CCC(=O)N1CC[C@H](Nc2ncnc3c2CN(c2cnc(OC)c(C(F)(F)F)c2)CC3)C1` [LENIOLISIB], 99 nM corresponded to half-maximal inhibition in assay [15] (IC50).

Source of the values: ChEMBL document CHEMBL5465560, “Selectivity Literature for EUbOPEN Chemogenomic Library” (2024).
